Results: patent EP4707280A1, “1,4-CINEOLE DERIVATIVE AND INTERMEDIATE THEREOF, HERBICIDE CONTAINING SAID DERIVATIVE AS ACTIVE INGREDIENT, METHOD FOR USING HERBICIDE, AND METHOD FOR PREPARING AGROCHEMICAL COMPOSITION” (HOKKO CHEMICAL INDUSTRY CO., LTD., priority 2023, dated 2024)

How the values were obtained:
Format in all cases: in vivo
[1] = test system: Echinochloa crus-galli var. formosensis; experiment: Test Example 1: herbicidal effect test by soil application in paddy rice; conditions: 120 g active ingredient per 10 ares, applied immediately after sowing, flooded pots, 14 days after application; for pest or weed control at 1200 g/ha: Echinochloa crus-galli, soil, 336 h, read-out: weed inhibition rate
Outline: (§1)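 Soil-applied test under flooded paddy conditions (~3 cm water) in a glass greenhouse. Seeds were sown shallow (0–1 cm, 30 per species), then compound was dripped in as diluted emulsifiable concentrate at 120 g a.i./10 a.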

Scirpus juncoides [2] = experiment: as above; conditions: 120 g active ingredient per 10 ares, applied immediately after sowing, flooded pots, 14 days after application; for pest or weed control at 1200 g/ha: Schoenoplectiella juncoides, soil, 336 h, read-out: weed inhibition rate
Outline: as §1

[3] = test system: Echinochloa crus-galli var. formosensis; experiment: Test Example 2: herbicidal effect test by application during growth period of paddy rice; conditions: 120 g per 10 ares, applied seven days after sowing, flooded pots, 14 days after application; for inhibition at 1200 g/ha: Echinochloa crus-galli, read-out: weed inhibition rate
Outline: (§2)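 Greenhouse pots of flooded paddy soil, seeded shallowly with 30 seeds per weed, are treated on day 7 by dropper with diluted emulsifiable concentrate equal to 120 g a.i./10 a. Duplicate pots are scored for inhibition rate 14 days post-application.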

Scirpus juncoides [4] = experiment: as above; conditions: 120 g per 10 ares, applied seven days after sowing, flooded pots, 14 days after application; for inhibition at 1200 g/ha: Schoenoplectiella juncoides, read-out: weed inhibition rate
Outline: as §2

Digitaria ciliaris [5] = experiment: Test Example 3: herbicidal effect test by soil application in upland field; conditions: 120 g per 10 ares, sprayed one day after sowing, 14 days after application; for inhibition at 1200 g/ha: Digitaria ciliaris, read-out: weed inhibition rate
Outline: (§3)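 Pre-emergence test: seeds mixed into top 1 cm of alluvial loam upland soil in pots; emulsifiable concentrate diluted in water sprayed on soil one day after sowing at 100 L/10 a, 120 g a.i./10 a. Weed inhibition rate (%) scored at 14 days, in duplicate.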

Echinochloa crus-galli [6] = experiment: as above; conditions: 120 g per 10 ares, sprayed one day after sowing, 14 days after application; for inhibition at 1200 g/ha: Echinochloa crus-galli, read-out: weed inhibition rate
Outline: as §3

Digitaria ciliaris [7] = experiment: Test Example 4: herbicidal effect test by stem and leaf treatment in upland field; conditions: 120 g per 10 ares, sprayed seven days after sowing, upland soil, 14 days after application; for inhibition at 1200 g/ha: Digitaria ciliaris, read-out: weed inhibition rate
Echinochloa crus-galli [8] = experiment: as above; conditions: 120 g per 10 ares, sprayed seven days after sowing, upland soil, 14 days after application; for inhibition at 1200 g/ha: Echinochloa crus-galli, read-out: weed inhibition rate
[9] = test system: Echinochloa crus-galli var. formosensis; experiment: Test Example 5: herbicidal effect test by soil application in paddy rice (low dose); conditions: 7.5 g per 10 ares, applied immediately after sowing, flooded pots, 14 days after application; for inhibition at 75 g/ha: Echinochloa crus-galli, soil, 336 h, read-out: weed inhibition rate
Outline: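 7.5 g a.i./10 a applied by dropper into ~3 cm floodwater immediately post-sowing (seeds 0–1 cm, 30 per species; puddled fertilized paddy soil, glasshouse). Duplicates; day-14 inhibition %.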

[10] = test system: Echinochloa crus-galli var. formosensis; experiment: Test Example 6: herbicidal effect test by application during growth period of paddy rice (low dose); conditions: 7.5 g per 10 ares, applied seven days after sowing, flooded pots, 14 days after application; for inhibition at 75 g/ha: Echinochloa crus-galli, read-out: weed inhibition rate
Outline: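 Paddy-soil pots, flooded ~3 cm after sowing weed seeds at 0-1 cm depth, greenhouse-grown. Seven days after sowing, diluted emulsifiable concentrate applied by dropper at 7.5 g active ingredient per 10 ares. Weed inhibition rate (%) scored 14 days after application, in duplicate.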

Digitaria ciliaris [11] = experiment: Test Example 7: herbicidal effect test by soil application in upland field (low dose); conditions: 7.5 g per 10 ares, sprayed one day after sowing, 14 days after application; for inhibition at 75 g/ha: Digitaria ciliaris, read-out: weed inhibition rate
Outline: (§4)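 Duplicate pots of alluvial loam, seeds incorporated in the surface 1 cm. Soil surface sprayed 1 d after sowing (EC in water, 100 L/10 a; 7.5 g a.i./10 a). Endpoint: % inhibition, day 14.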

Echinochloa crus-galli [12] = experiment: as above; conditions: 7.5 g per 10 ares, sprayed one day after sowing, 14 days after application; for inhibition at 75 g/ha: Echinochloa crus-galli, read-out: weed inhibition rate
Outline: as §4

Digitaria ciliaris [13] = experiment: Test Example 8: herbicidal effect test by stem and leaf treatment in upland field (low dose); conditions: 7.5 g per 10 ares, sprayed seven days after sowing, upland soil, 14 days after application; for inhibition at 75 g/ha: Digitaria ciliaris, read-out: weed inhibition rate
Echinochloa crus-galli [14] = experiment: as above; conditions: 7.5 g per 10 ares, sprayed seven days after sowing, upland soil, 14 days after application; for inhibition at 75 g/ha: Echinochloa crus-galli, read-out: weed inhibition rate

CC(C)C12C=CC(C)(O1)C(OCc1ccccc1F)C2 (centres unmarked) [3-754, 5-[(2-fluorophenyl)methoxy]-4-methyl-1-isopropyl-7-oxabicyclo[2.2.1]hept-2-ene]
≥ 80%: pest or weed control at 1200 g/ha [1] | pest or weed control at 1200 g/ha (Scirpus juncoides [2]) | inhibition at 1200 g/ha [3] | inhibition at 1200 g/ha (Scirpus juncoides [4]) | inhibition at 1200 g/ha (Digitaria ciliaris [5]) | inhibition at 1200 g/ha (Echinochloa crus-galli [6]) | inhibition at 1200 g/ha (Digitaria ciliaris [7]) | inhibition at 1200 g/ha (Echinochloa crus-galli [8]) | inhibition at 75 g/ha [9] | inhibition at 75 g/ha [10] | inhibition at 75 g/ha (Digitaria ciliaris [11]) | inhibition at 75 g/ha (Echinochloa crus-galli [12]) | inhibition at 75 g/ha (Digitaria ciliaris [13]) | inhibition at 75 g/ha (Echinochloa crus-galli [14])

CC(C)C12CC(OCc3ccccc3F)C(C)(CC1I)O2 (centres unmarked) [1-1421, 2-[(2-fluorophenyl)methoxy]-5-iodo-1-methyl-4-isopropyl-7-oxabicyclo[2.2.1]heptane]
≥ 80%: pest or weed control at 1200 g/ha [1] | pest or weed control at 1200 g/ha (Scirpus juncoides [2]) | inhibition at 1200 g/ha [3] | inhibition at 1200 g/ha (Scirpus juncoides [4]) | inhibition at 1200 g/ha (Digitaria ciliaris [5]) | inhibition at 1200 g/ha (Echinochloa crus-galli [6]) | inhibition at 1200 g/ha (Digitaria ciliaris [7]) | inhibition at 1200 g/ha (Echinochloa crus-galli [8]) | inhibition at 75 g/ha [9] | inhibition at 75 g/ha [10] | inhibition at 75 g/ha (Digitaria ciliaris [11]) | inhibition at 75 g/ha (Echinochloa crus-galli [12]) | inhibition at 75 g/ha (Digitaria ciliaris [13]) | inhibition at 75 g/ha (Echinochloa crus-galli [14])

CC(C)C12CC(OCc3c(F)cccc3F)C(C)(CC1I)O2 (centres unmarked) [1-1446, 5-[(2,6-difluorophenyl)methoxy]-2-iodo-1-isopropyl-4-methyl-7-oxabicyclo[2.2.1]heptane]
≥ 80%: pest or weed control at 1200 g/ha [1] | pest or weed control at 1200 g/ha (Scirpus juncoides [2]) | inhibition at 1200 g/ha [3] | inhibition at 1200 g/ha (Scirpus juncoides [4]) | inhibition at 1200 g/ha (Digitaria ciliaris [5]) | inhibition at 1200 g/ha (Echinochloa crus-galli [6]) | inhibition at 1200 g/ha (Digitaria ciliaris [7]) | inhibition at 1200 g/ha (Echinochloa crus-galli [8]) | inhibition at 75 g/ha [9] | inhibition at 75 g/ha [10] | inhibition at 75 g/ha (Digitaria ciliaris [11]) | inhibition at 75 g/ha (Echinochloa crus-galli [12]) | inhibition at 75 g/ha (Digitaria ciliaris [13]) | inhibition at 75 g/ha (Echinochloa crus-galli [14])

CC(C)C12CC(OCc3cccs3)C(C)(CC1I)O2 (centres unmarked) [1-1456, 2-iodo-1-isopropyl-4-methyl-5-(2-thienylmethoxy)-7-oxabicyclo[2.2.1]heptane]
≥ 80%: pest or weed control at 1200 g/ha [1] | pest or weed control at 1200 g/ha (Scirpus juncoides [2]) | inhibition at 1200 g/ha [3] | inhibition at 1200 g/ha (Scirpus juncoides [4]) | inhibition at 1200 g/ha (Digitaria ciliaris [5]) | inhibition at 1200 g/ha (Echinochloa crus-galli [6]) | inhibition at 1200 g/ha (Digitaria ciliaris [7]) | inhibition at 1200 g/ha (Echinochloa crus-galli [8]) | inhibition at 75 g/ha [9] | inhibition at 75 g/ha [10] | inhibition at 75 g/ha (Digitaria ciliaris [11]) | inhibition at 75 g/ha (Echinochloa crus-galli [12]) | inhibition at 75 g/ha (Digitaria ciliaris [13]) | inhibition at 75 g/ha (Echinochloa crus-galli [14])

CC(C)[C@]12C[C@@H](OCc3ccsc3)[C@](C)(C[C@@H]1I)O2 [1-789, (1R,2S,4S,5R)-2-iodo-1-isopropyl-4-methyl-5-(3-thienylmethoxy)-7-oxabicyclo[2.2.1]heptane]
≥ 80%: pest or weed control at 1200 g/ha [1] | pest or weed control at 1200 g/ha (Scirpus juncoides [2]) | inhibition at 1200 g/ha [3] | inhibition at 1200 g/ha (Scirpus juncoides [4]) | inhibition at 1200 g/ha (Digitaria ciliaris [5]) | inhibition at 1200 g/ha (Echinochloa crus-galli [6]) | inhibition at 1200 g/ha (Digitaria ciliaris [7]) | inhibition at 1200 g/ha (Echinochloa crus-galli [8]) | inhibition at 75 g/ha [9] | inhibition at 75 g/ha [10] | inhibition at 75 g/ha (Digitaria ciliaris [11]) | inhibition at 75 g/ha (Echinochloa crus-galli [12]) | inhibition at 75 g/ha (Digitaria ciliaris [13]) | inhibition at 75 g/ha (Echinochloa crus-galli [14])

CC(C)C12CC(OCc3ccccn3)C(C)(CC1Br)O2 (centres unmarked) [1-1386, 2-[(5-bromo-1-methyl-4-isopropyl-7-oxabicyclo[2.2.1]heptan-2-yl)oxymethyl]pyridine]
≥ 80%: pest or weed control at 1200 g/ha [1] | pest or weed control at 1200 g/ha (Scirpus juncoides [2]) | inhibition at 1200 g/ha [3] | inhibition at 1200 g/ha (Scirpus juncoides [4]) | inhibition at 1200 g/ha (Digitaria ciliaris [5]) | inhibition at 1200 g/ha (Echinochloa crus-galli [6]) | inhibition at 1200 g/ha (Digitaria ciliaris [7]) | inhibition at 1200 g/ha (Echinochloa crus-galli [8]) | inhibition at 75 g/ha [9] | inhibition at 75 g/ha [10] | inhibition at 75 g/ha (Digitaria ciliaris [11]) | inhibition at 75 g/ha (Echinochloa crus-galli [12]) | inhibition at 75 g/ha (Digitaria ciliaris [13]) | inhibition at 75 g/ha (Echinochloa crus-galli [14])

CC(C)[C@]12C[C@@H](OCc3ccccc3C#N)[C@](C)(C[C@@H]1I)O2 [1-768, 2-[[(l S,2R,4R,5S)-5-iodo-4-isopropyl-l-methyl-7-oxabicyclo[2.2.1]heptan-2-yl]oxymethyl]benzonitrile]
≥ 80%: weed inhibition rate [1] | weed inhibition rate (Scirpus juncoides [2]) | weed inhibition rate [3] | weed inhibition rate (Scirpus juncoides [4]) | weed inhibition rate (Digitaria ciliaris [5]) | weed inhibition rate (Echinochloa crus-galli [6]) | weed inhibition rate (Digitaria ciliaris [7]) | weed inhibition rate (Echinochloa crus-galli [8]) | weed inhibition rate [9] | weed inhibition rate [10] | weed inhibition rate (Digitaria ciliaris [11]) | weed inhibition rate (Echinochloa crus-galli [12]) | weed inhibition rate (Digitaria ciliaris [13]) | weed inhibition rate (Echinochloa crus-galli [14])

CC#CCO[C@@H]1C[C@]2(C(C)C)O[C@@]1(C)C[C@@H]2I [1-734, (1R,2S,4S,5R)-5-but-2-ynoxy-2-iodo-1-isopropyl-4-methyl-7-oxabicyclo[2.2.1]heptane]
≥ 80%: pest or weed control at 1200 g/ha [1] | pest or weed control at 1200 g/ha (Scirpus juncoides [2]) | inhibition at 1200 g/ha [3] | inhibition at 1200 g/ha (Scirpus juncoides [4]) | inhibition at 1200 g/ha (Digitaria ciliaris [5]) | inhibition at 1200 g/ha (Echinochloa crus-galli [6]) | inhibition at 1200 g/ha (Digitaria ciliaris [7]) | inhibition at 1200 g/ha (Echinochloa crus-galli [8]) | inhibition at 75 g/ha [9] | inhibition at 75 g/ha [10] | inhibition at 75 g/ha (Digitaria ciliaris [11]) | inhibition at 75 g/ha (Echinochloa crus-galli [12]) | inhibition at 75 g/ha (Digitaria ciliaris [13]) | inhibition at 75 g/ha (Echinochloa crus-galli [14])

CC(C)C12CC(OCc3ccccc3Br)C(C)(CC1Cl)O2 (centres unmarked) [1-1295, 2-[(2-bromophenyl)methoxy]-5-chloro-1-methyl-4-isopropyl-7-oxabicyclo[2.2.1]heptane]
≥ 80%: pest or weed control at 1200 g/ha [1] | pest or weed control at 1200 g/ha (Scirpus juncoides [2]) | inhibition at 1200 g/ha [3] | inhibition at 1200 g/ha (Scirpus juncoides [4]) | inhibition at 1200 g/ha (Digitaria ciliaris [5]) | inhibition at 1200 g/ha (Echinochloa crus-galli [6]) | inhibition at 1200 g/ha (Digitaria ciliaris [7]) | inhibition at 1200 g/ha (Echinochloa crus-galli [8]) | inhibition at 75 g/ha [9] | inhibition at 75 g/ha [10] | inhibition at 75 g/ha (Digitaria ciliaris [11]) | inhibition at 75 g/ha (Echinochloa crus-galli [12]) | inhibition at 75 g/ha (Digitaria ciliaris [13]) | inhibition at 75 g/ha (Echinochloa crus-galli [14])

CC(C)[C@]12C[C@@H](OCc3ccccc3F)[C@](C)(C=C1OS(=O)(=O)C(F)(F)F)O2 (racemic) [3-680]
≥ 80%: weed inhibition rate [1] | weed inhibition rate (Scirpus juncoides [2]) | weed inhibition rate [3] | weed inhibition rate (Scirpus juncoides [4]) | weed inhibition rate (Digitaria ciliaris [5]) | weed inhibition rate (Echinochloa crus-galli [6]) | weed inhibition rate (Digitaria ciliaris [7]) | weed inhibition rate (Echinochloa crus-galli [8]) | weed inhibition rate [9] | weed inhibition rate [10] | weed inhibition rate (Digitaria ciliaris [11]) | weed inhibition rate (Echinochloa crus-galli [12]) | weed inhibition rate (Digitaria ciliaris [13]) | weed inhibition rate (Echinochloa crus-galli [14])
